Data taken from ChEMBL document CHEMBL3271991, “A series of hexahydro[1,4]oxazino[3,4-a]isoquinolines as potential neuroleptics” (J Med Chem, 1978).
The source made the active and inactive calls. The calls are words filed in the database; no cut-off is given here.

What was measured:
[1] = tested on: Vulpes vulpes; experiment: Neuroleptic activity in wild fox assessed as taming effect at 32 mg/kg, ip; format: functional, organism-based; parameters: dose 32 mg/kg
[2] = Toxicity in wild fox assessed as ataxia at 32 mg/kg, ip; format: organism-based; parameters: dose 32 mg/kg, route intraperitoneal; conditions: vulpes vulpes, in vivo
[3] = Toxicity in po dosed mouse; format: organism-based; conditions: in vivo
[4] = tested on: Gerbillinae; experiment: Neuroleptic activity in gerbil assessed as escape latency time at 4 mg/kg, ip measured up to 50 mins by sidman avoidance test relative to control; format: functional; conditions: route intraperitoneal
[5] = tested on: Gerbillinae; experiment: Neuroleptic activity in gerbil assessed as escape latency time at 16 mg/kg, ip measured up to 50 mins by sidman avoidance test relative to control; format: functional; conditions: route intraperitoneal
[6] = tested on: Gerbillinae; experiment: Neuroleptic activity in gerbil assessed as escape latency time at 8 mg/kg, ip measured up to 50 mins by sidman avoidance test relative to control; format: functional; conditions: route intraperitoneal
[7] = tested on: Gerbillinae; experiment: Neuroleptic activity in gerbil assessed as escape latency time at 2 mg/kg, ip measured up to 50 mins by sidman avoidance test relative to control; format: functional; conditions: route intraperitoneal
[8] = tested on: Rhesus monkey; experiment: Toxicity in monkey assessed as ataxia at 16 mg/kg, ip; format: organism-based, Macaca mulatta; parameters: dose 16 mg/kg, route intraperitoneal; conditions: in vivo
[9] = tested on: Mus musculus; experiment: Neuroleptic activity in ip dosed mouse assessed as blockade of prehensile reflex by measuring failure to hang measured for 5 secs; format: functional
[10] = tested on: Gerbillinae; experiment: Neuroleptic activity in ip dosed gerbil up to 50 mins by sidman avoidance test; format: functional; conditions: read-out: MED
[11] = Toxicity in wild fox assessed as ataxia at 16 mg/kg, ip; format: organism-based; parameters: dose 16 mg/kg, route intraperitoneal; conditions: vulpes vulpes, in vivo
[12] = tested on: Mus musculus; experiment: Neuroleptic activity in ip dosed mouse assessed as blockade of traction reflex by measuring failure to grasp wire with hind paws measured for 5 secs; format: functional
[13] = Toxicity in ip dosed mouse; format: organism-based; conditions: in vivo
[14] = tested on: Felis catus; experiment: Induction of muscle relaxant effect in cat at 20 mg/kg, iv; format: functional, organism-based; parameters: dose 20 mg/kg
[15] = tested on: Rhesus monkey; experiment: Neuroleptic activity in monkey assessed as taming effect at 16 mg/kg, ip; format: functional, organism-based; parameters: dose 16 mg/kg; conditions: Macaca mulatta
[16] = tested on: Vulpes vulpes; experiment: Neuroleptic activity in wild fox assessed as taming effect at 16 mg/kg, ip; format: functional, organism-based; parameters: dose 16 mg/kg
[17] = tested on: Mus musculus; experiment: Neuroleptic activity in ip dosed mouse assessed as blockade of corneal reflex by measuring failure to blink; format: functional; conditions: Cornea
[18] = tested on: Mus musculus; experiment: Neuroleptic activity in ip dosed mouse assessed as blockade of righting reflex by measuring failure to right to normal position measured for 30 secs; format: functional
[19] = tested on: Mus musculus; experiment: Neuroleptic activity in mouse assessed as blockade of traction reflex by measuring failure to grasp wire with hind paws at 640 mg/kg, ip measured for 5 secs; format: functional, organism-based; parameters: dose 640 mg/kg
[20] = tested on: Mus musculus; experiment: Neuroleptic activity in mouse assessed as blockade of corneal reflex by measuring failure to blink at 640 mg/kg, ip; format: functional, organism-based; parameters: dose 640 mg/kg; conditions: Cornea
[21] = tested on: Mus musculus; experiment: Neuroleptic activity in mouse assessed as blockade of prehensile reflex by measuring failure to hang at 640 mg/kg, ip measured for 5 secs; format: functional, organism-based; parameters: dose 640 mg/kg
[22] = tested on: Mus musculus; experiment: Neuroleptic activity in mouse assessed as blockade of righting reflex by measuring failure to right to normal position at 640 mg/kg, ip measured for 30 secs; format: functional, organism-based; parameters: dose 640 mg/kg
[23] = tested on: Gerbillinae; experiment: Neuroleptic activity in gerbil assessed as escape latency time at 80 mg/kg, ip measured up to 50 mins by sidman avoidance test relative to control; format: functional; conditions: route intraperitoneal
[24] = tested on: Gerbillinae; experiment: Neuroleptic activity in gerbil assessed as escape latency time at 40 mg/kg, ip measured up to 50 mins by sidman avoidance test relative to control; format: functional; conditions: route intraperitoneal
[25] = tested on: Gerbillinae; experiment: Neuroleptic activity in gerbil assessed as escape latency time at 20 mg/kg, ip measured up to 50 mins by sidman avoidance test relative to control; format: functional; conditions: route intraperitoneal
[26] = tested on: Gerbillinae; experiment: Neuroleptic activity in gerbil assessed as escape latency time at 10 mg/kg, ip measured up to 50 mins by sidman avoidance test relative to control; format: functional; conditions: route intraperitoneal
[27] = tested on: Gerbillinae; experiment: Neuroleptic activity in gerbil assessed as escape latency time at 5 mg/kg, ip measured up to 50 mins by sidman avoidance test relative to control; format: functional; conditions: route intraperitoneal
[28] = tested on: Gerbillinae; experiment: Neuroleptic activity in gerbil assessed as escape latency time at 2.5 mg/kg, ip measured up to 50 mins by sidman avoidance test relative to control; format: functional; conditions: route intraperitoneal
[29] = tested on: Gerbillinae; experiment: Neuroleptic activity in gerbil assessed as escape latency time at 1 mg/kg, ip measured up to 50 mins by sidman avoidance test relative to control; format: functional; conditions: route intraperitoneal
[30] = Toxicity in wild fox assessed as ataxia at 4 mg/kg, ip; format: organism-based; parameters: dose 4 mg/kg, route intraperitoneal; conditions: vulpes vulpes, in vivo
[31] = tested on: Gerbillinae; experiment: Neuroleptic activity in gerbil assessed as escape latency time at 0.5 mg/kg, ip measured up to 50 mins by sidman avoidance test relative to control; format: functional; conditions: route intraperitoneal
[32] = tested on: Vulpes vulpes; experiment: Neuroleptic activity in wild fox assessed as taming effect at 4 mg/kg, ip; format: functional, organism-based; parameters: dose 4 mg/kg
[33] = Mus musculus, ip, read-out: ED50

**Q.** For CNC1=Nc2ccccc2C(c2ccccc2)=[N+]([O-])C1, which Activity [1] is on record?
**A.** Its Activity is “Active”.

**Q.** And the Activity [2]?
**A.** Its Activity is “Non-toxic”.

**Q.** Which results are given for CCN(CC)C(=O)[C@H]1CN2CCc3cc(OC)c(OC)cc3[C@H]2CO1.Cl (racemic)?
**A.** LD50 [3]: 1400 mg/kg; Time [4]: 0.8 s; Time [5]: 0.8 s; Time [6]: 0.5 s; Time [7]: 0.6 s; Activity [8]: Non-toxic; ED50 [9, 33]: 400 mg/kg; minimal effective dose [10]: 25 mg/kg; Activity [11]: Non-toxic; ED50 [12, 33]: 100 mg/kg; LD50 [13]: 1100 mg/kg

**Q.** Which results are given for CCN(CC)C(=O)[C@H]1CN2CCc3cc(OC)c(OC)cc3[C@H]2CO1 (racemic)?
**A.** Activity [14]: Active; Activity [15]: Active; Activity [16]: Active

**Q.** For COc1cc2c(cc1OC)[C@H]1CO[C@H](C#N)CN1CC2 (relative stereo), which ED50 [9, 33] is on record?
**A.** The ED50 was > 640 mg/kg.

**Q.** What about the ED50 [12, 33] of the same molecule?
**A.** The ED50 was 180 mg/kg.

**Q.** With CCN(CC)C(=O)[C@H]1CN2CCc3cc(OC)c(OC)cc3[C@H]2CO1 (relative stereo) as the molecule, how does the ED50 [9, 33] read?
**A.** The ED50 was 500 mg/kg.

**Q.** And the ED50 [12, 33]?
**A.** Its ED50 is 110 mg/kg.

**Q.** What does the source list for COc1cc2c(cc1OC)[C@H]1CO[C@@H](C(=O)N3CCCC3)CN1CC2 (relative stereo)?
**A.** ED50 [9, 33]: > 640 mg/kg; ED50 [12, 33]: 180 mg/kg

**Q.** Which ED50 [17] does the source give for COc1cc2c(cc1OC)[C@H]1CO[C@@H](C(=O)N3CCCCC3)CN1CC2 (relative stereo) here?
**A.** Its ED50 is 450 mg/kg.

**Q.** What about the ED50 [9, 33] of the same molecule?
**A.** Its ED50 is 280 mg/kg.

**Q.** What about the ED50 [12, 33] of the same molecule?
**A.** The ED50 was 180 mg/kg.

**Q.** And the ED50 [18]?
**A.** The ED50 was 280 mg/kg.

**Q.** Which ED50 [9, 33] does the source give for COc1cc2c(cc1OC)[C@H]1CO[C@@H](C(=O)N3CCOCC3)CN1CC2 (relative stereo) here?
**A.** Its ED50 is > 640 mg/kg.

**Q.** What about the ED50 [12, 33] of the same molecule?
**A.** The ED50 was 200 mg/kg.

**Q.** With CCOC(=O)[C@H]1CN2CCc3cc(OC)c(OC)cc3[C@H]2CO1 (relative stereo) as the molecule, how does the Activity [19] read?
**A.** Its Activity is “inactive”.

**Q.** And the Activity [20]?
**A.** Its Activity is “inactive”.

**Q.** What about the Activity [21] of the same molecule?
**A.** The Activity was “inactive”.

**Q.** And the Activity [22]?
**A.** The Activity was “inactive”.

**Q.** For CCN(CC)C(=O)C1CN2CCc3cc(OC)c(OC)cc3C2CO1 (stereo in doubt; 19), which ED50 [9, 33] is on record?
**A.** Its ED50 is 400 mg/kg.

**Q.** And the Time [23]?
**A.** Its Time is 2.2 s.

**Q.** What about the Time [24] of the same molecule?
**A.** Its Time is 1.2 s.

**Q.** What about the ED50 [12, 33] of the same molecule?
**A.** Its ED50 is 125 mg/kg.

**Q.** And the Time [25]?
**A.** The Time was 0.5 s.

**Q.** Which ED50 [9] does the source give for CCN(CC)C(=O)C1CN2CCc3cc(OC)c(OC)cc3C2CO1 (stereo in doubt; 20) here?
**A.** The ED50 was 460 mg/kg.

**Q.** And the Time [26]?
**A.** Its Time is 1.2 s.

**Q.** And the Time [27]?
**A.** Its Time is 0.6 s.

**Q.** What about the ED50 [12] of the same molecule?
**A.** Its ED50 is 150 mg/kg.

**Q.** What about the Time [28] of the same molecule?
**A.** The Time was 0.5 s.

**Q.** And the Time [25]?
**A.** The Time was 2.4 s.

**Q.** With CN(C)CCCN1c2ccccc2Sc2ccc(Cl)cc21 [CHLORPROMAZINE] as the molecule, how does the Time [7] read?
**A.** The Time was 0.8 s.

**Q.** And the ED50 [17]?
**A.** Its ED50 is 160 mg/kg.

**Q.** What about the ED50 [9, 33] of the same molecule?
**A.** The ED50 was 74 mg/kg.

**Q.** And the Time [29]?
**A.** Its Time is 1.1 s.

**Q.** And the Activity [30]?
**A.** The Activity was “Non-toxic”.

**Q.** What about the Time [31] of the same molecule?
**A.** The Time was 1 s.

**Q.** And the ED50 [12, 33]?
**A.** Its ED50 is 6 mg/kg.

**Q.** And the Activity [32]?
**A.** The Activity was “Active”.

**Q.** What about the ED50 [18] of the same molecule?
**A.** The ED50 was 115 mg/kg.

**Q.** What does the source list for CCCC(C)(COC(N)=O)COC(N)=O [MEPROBAMATE]?
**A.** ED50 [17]: 400 mg/kg; ED50 [9, 33]: 225 mg/kg; ED50 [12, 33]: 160 mg/kg; ED50 [18]: 320 mg/kg

**Q.** For CCC1(c2ccccc2)C(=O)NC(=O)NC1=O [PHENOBARBITAL], which ED50 [17] is on record?
**A.** The ED50 was 100 mg/kg.

**Q.** And the ED50 [9, 33]?
**A.** The ED50 was 82 mg/kg.

**Q.** And the ED50 [12, 33]?
**A.** The ED50 was 64 mg/kg.

**Q.** What about the ED50 [18] of the same molecule?
**A.** Its ED50 is 140 mg/kg.
